Results reported in US4559323A, “A41030 Antibiotics” (Eli Lilly and Company, priority 1984, dated 1985).
Like-named read-outs stand apart in the source and are kept apart here.

Tests used:
[1] = test system: S. pyogenes; test: Experimental bacterial infection in mice, subcutaneous ED50; assay type: in vivo; conditions: two doses subcutaneously
Protocol: (§1) All of the A41030 factors tested have shown in vivo antimicrobial activity against experimental bacterial infections. When two doses of test compound were administered subcutaneously to mice in illustrative infections, the activity observed is measured as an ED50 value [effective dose in mg./kg. to protect fifty percent of the test animals: See Warren Wick, et al., J. Bacteriol. 81, 233-235 (1961)].

[2] = test system: Staph. aureus; test: as above; assay type: in vivo; conditions: two doses subcutaneously
Protocol: as §1

[3] = test system: S. pneumoniae; test: as above; assay type: in vivo; conditions: two doses subcutaneously
Protocol: as §1

[4] = test system: Hemophilus influenzae; test: Agar-dilution MIC; assay type: cell-based; conditions: Table 17, 24 hours
[5] = test system: Peptostreptococcus anaerobius; test: Agar-dilution MIC (anaerobes); assay type: cell-based; conditions: Table 14; Peptostreptococcus anaerobius 1428
[6] = test system: B. thetaiotaomicron; assay type: cell-based; conditions: Table 14; Bacteroides thetalotaomicron 1438
Description: (§2) The agar-dilution procedure described by the International Collaborative study (ICS) group was used to determine the minimum inhibitory concentrations (MIC's).

[7] = test system: Propionibacterium acnes; test: Agar-dilution MIC (anaerobes); assay type: cell-based; conditions: Table 14; Propionibacterium acnes 79
Description: Antibiotic A41030 factors A, B and C have also been tested and found to be active against a genus of anaerobic bacteria identified as Propionibacterium acnes.

[8] = test system: Fusobacterium symbiosum; test: Agar-dilution MIC (anaerobes); assay type: cell-based; conditions: Table 14; Fusobacterium symbiosum 1470
[9] = test system: Clostridium perfringens; assay type: cell-based; conditions: Table 14; Clostridium perfringens 81
[10] = test system: Clostridium difficile; assay type: cell-based
Description: The A41030 antibiotic factors A, B, C, D, E, F, and G, are also active against a number of strains of Clostridium difficile, as determined by the agar-dilution method.

[11] = test system: Escherichia coli; test: Agar-dilution MIC; assay type: cell-based; conditions: Table 17; 24 hours; Escherichia coli TEM
[12] = test system: Bacteroides corrodens; test: Agar-dilution MIC (anaerobes); assay type: cell-based; conditions: Table 14; Bacteroides corrodens 1874
[13] = test system: Salmonella typhi; test: Agar-dilution MIC; assay type: cell-based; conditions: Table 17, 24 hours
[14] = test system: Clostridium septicum; test: Agar-dilution MIC (anaerobes); assay type: cell-based; conditions: Table 14; Clostridium septicum 1128
[15] = test system: Peptococcus prevoti; test: Agar-dilution MIC (anaerobes); assay type: cell-based; conditions: Table 14; Peptococcus prevoti 1281
[16] = test system: Bacteroides vulgatis; test: Agar-dilution MIC (anaerobes); assay type: cell-based; conditions: Table 14; Bacteroides vulgatis 1211
[17] = test system: Bacteroides melaninogenicus; test: Agar-dilution MIC (anaerobes); assay type: cell-based; conditions: Table 14
[18] = test system: Peptostreptococcus intermedius; test: Agar-dilution MIC (anaerobes); assay type: cell-based; conditions: Table 14; Peptostreptococcus intermedius 1264
[19] = test system: Streptococcus sp. (Group D); test: Agar-dilution MIC; assay type: cell-based; conditions: Table 17, 24 hours
Description: as §2

[20] = test system: Staphylococcus epidermidis; test: Agar-dilution MIC; assay type: cell-based; conditions: Table 17, 24 hours
Description: as §2

[21] = test system: Streptococcus pyogenes; test: Agar-dilution MIC; assay type: cell-based; conditions: Table 17; 24 hours; Streptococcus pyogenes C203
Description: as §2

[22] = test system: Streptococcus pneumoniae; test: Agar-dilution MIC; assay type: cell-based; conditions: Table 17; 24 hours; Streptococcus pneumoniae Park I
Description: as §2

[23] = test system: Klebsiella pneumoniae; test: Agar-dilution MIC; assay type: cell-based; conditions: Table 17; 24 hours; Klebsiella pneumoniae X26
[24] = test system: Eubacterium aerofaciens; test: Agar-dilution MIC (anaerobes); assay type: cell-based; conditions: Table 14; Eubacterium aerofaciens 1235
[25] = test system: Staphylococcus aureus; test: Agar-dilution MIC; assay type: cell-based
[26] = test system: Fusobacterium necrophorum; test: Agar-dilution MIC (anaerobes); assay type: cell-based; conditions: Table 14; Fusobacterium necrophorum 6054A
[27] = Electrometric titration (pKa); assay type: physicochemical; conditions: electrometric titration in 66% dimethylformamide in water
[28] = test system: Peptococcus asaccharolyticus; test: Agar-dilution MIC (anaerobes); assay type: cell-based; conditions: Table 14; Peptococcus asaccharolyticus 1302
[29] = test system: Bacteroides fragilis; test: Agar-dilution MIC (anaerobes); assay type: cell-based; conditions: Table 14
Description: as §2

[30] = Solubility in solvents; assay type: physicochemical; conditions: solvents as named
Description: The seven antibiotic factors are recovered from the fermentation and are obtained as a mixture, the A41030 complex. It will be recognized that the ratio of the factors in the A41030 complex will vary, depending upon the fermentation conditions used. The individual factors […], and G are separated and isolated as individual compounds, as hereinafter described.

[31] = test system: Clostridium difficile; assay type: cell-based; conditions: Table 14; Clostridium difficile 2994
[32] = Table 16, C. difficile WAL-2112
[33] = Table 16, C. difficile WAL-3657
[34] = Table 16, C. difficile WAL-4268
[35] = Bacteroides melaninogenicus 2736
[36] = Staphylococcus epidermidis EPI1
[37] = Staphylococcus epidermidis EPI2

Substance: A41030 factor D
- ED50 [1]: 3.24 mg/kg
- ED50 [2]: 0.339 mg/kg
- ED50 [3]: 2.21 mg/kg
- MIC ([4]; Haemophilus influenzae 76): 8 µg/mL
- MIC ([4]; Haemophilus influenzae C.L.): 8 µg/mL
- MIC [5]: 0.5 µg/mL
- MIC [6]: 32 µg/mL
- MIC [7]: 0.25 µg/mL
- MIC [8]: 0.5 µg/mL
- MIC [9]: 0.5 µg/mL
- MIC [10]: 0.5 µg/mL
- MIC ([10]; Table 16, C. difficile 78): ≤ 0.25 µg/mL
- MIC ([10]; Table 16, C. difficile 107B): ≤ 0.25 µg/mL
- MIC ([10]; Table 16, C. difficile 111F): ≤ 0.25 µg/mL
- MIC ([10]; Table 16, C. difficile 1153): 1.0 µg/mL
- MIC ([10]; Table 16, C. difficile 2634): 0.5 µg/mL
- MIC ([10]; Table 16, C. difficile 3424-5B): 0.5 µg/mL
- MIC ([10]; Table 16, C. difficile 3816): 0.5 µg/mL
- MIC ([10]; Table 16, C. difficile 3950): 0.5 µg/mL
- MIC ([10]; Table 16, C. difficile 6890): 0.5 µg/mL
- MIC ([10]; Table 16, C. difficile 8484): ≤ 0.25 µg/mL
- MIC ([10]; Table 16, C. difficile A-194): ≤ 0.25 µg/mL
- MIC ([10]; Table 16, C. difficile A-195): ≤ 0.25 µg/mL
- MIC ([10]; Table 16, C. difficile A-196): 0.5 µg/mL
- MIC ([10]; Table 16, C. difficile A-279): ≤ 0.25 µg/mL
- MIC ([10]; Table 16, C. difficile A-280): ≤ 0.25 µg/mL
- MIC ([10]; Table 16, C. difficile A-281): 0.5 µg/mL
- MIC [10, 32]: ≤ 0.25 µg/mL
- MIC [10, 33]: ≤ 0.25 µg/mL
- MIC [10, 34]: ≤ 0.25 µg/mL
- MIC [11]: 64 µg/mL
- MIC [12]: 32 µg/mL
- MIC ([13]; Salmonella typhi 1335): > 128 µg/mL
- MIC ([13]; Salmonella typhi X514): > 128 µg/mL
- MIC [14]: 0.25 µg/mL
- MIC [15]: 0.25 µg/mL
- MIC [16]: 32 µg/mL
- MIC ([17]; Bacteroides melaninogenicus 1856/28): > 64 µg/mL
- MIC [17, 35]: 0.5 µg/mL
- MIC [18]: 1.0 µg/mL
- MIC ([19]; Streptococcus sp. Group D 9960): 1 µg/mL
- MIC ([19]; Streptococcus sp. Group D X66): 1 µg/mL
- MIC [20, 36]: 0.25 µg/mL
- MIC [20, 37]: 1 µg/mL
- MIC [21]: 0.5 µg/mL
- MIC [22]: 0.5 µg/mL
- MIC [23]: 128 µg/mL
- MIC [24]: 0.5 µg/mL
- MIC [25]: 0.25 µg/mL
- MIC ([25]; Table 17, 24 hours, Staphylococcus aureus S13E): 0.25 µg/mL
- MIC ([25]; Table 17, 24 hours, Staphylococcus aureus V41): 0.25 µg/mL
- MIC ([25]; Table 17, 24 hours, Staphylococcus aureus X400): 0.25 µg/mL
- MIC [26]: ≤ 0.125 µg/mL
- pKa, first titratable group [27]: about 5.5
- pKa, second titratable group [27]: ~7.6
- MIC [28]: ≤ 0.125 µg/mL
- MIC ([29]; Bacteroides fragilis 111): 32 µg/mL
- MIC ([29]; Bacteroides fragilis 1877): 32 µg/mL
- MIC ([29]; Bacteroides fragilis 1936B): 32 µg/mL
- Solubility [30]: soluble in the same solvents as factor A

Substance: A41030 factor G
- MIC ([4]; Haemophilus influenzae 76): 32 µg/mL
- MIC ([4]; Haemophilus influenzae C.L.): 32 µg/mL
- MIC [5]: ≤ 0.5 µg/mL
- MIC [31]: 2 µg/mL
- MIC [6]: 64 µg/mL
- MIC [7]: 1.0 µg/mL
- MIC [8]: 2 µg/mL
- MIC [9]: 2 µg/mL
- MIC ([10]; Table 16, C. difficile 78): 1.0 µg/mL
- MIC ([10]; Table 16, C. difficile 107B): 1.0 µg/mL
- MIC ([10]; Table 16, C. difficile 111F): 1.0 µg/mL
- MIC ([10]; Table 16, C. difficile 1153): 1.0 µg/mL
- MIC ([10]; Table 16, C. difficile 2634): 1.0 µg/mL
- MIC ([10]; Table 16, C. difficile 3424-5B): 1.0 µg/mL
- MIC ([10]; Table 16, C. difficile 3816): 1.0 µg/mL
- MIC ([10]; Table 16, C. difficile 3950): 1.0 µg/mL
- MIC ([10]; Table 16, C. difficile 6890): 1.0 µg/mL
- MIC ([10]; Table 16, C. difficile 8484): 1.0 µg/mL
- MIC ([10]; Table 16, C. difficile A-194): 1.0 µg/mL
- MIC ([10]; Table 16, C. difficile A-195): 1.0 µg/mL
- MIC ([10]; Table 16, C. difficile A-196): 1.0 µg/mL
- MIC ([10]; Table 16, C. difficile A-279): 1.0 µg/mL
- MIC ([10]; Table 16, C. difficile A-280): 1.0 µg/mL
- MIC ([10]; Table 16, C. difficile A-281): 1.0 µg/mL
- MIC [10, 32]: 1.0 µg/mL
- MIC [10, 33]: 1.0 µg/mL
- MIC [10, 34]: 1.0 µg/mL
- MIC [12]: 32 µg/mL
- MIC ([13]; Salmonella typhi 1335): > 128 µg/mL
- MIC ([13]; Salmonella typhi X514): > 128 µg/mL
- MIC [14]: 2 µg/mL
- MIC [15]: 2 µg/mL
- MIC [16]: 64 µg/mL
- MIC [17, 35]: 64 µg/mL
- MIC [18]: 2 µg/mL
- MIC ([19]; Streptococcus sp. Group D 9960): 4 µg/mL
- MIC ([19]; Streptococcus sp. Group D X66): 4 µg/mL
- MIC [20, 36]: 0.5 µg/mL
- MIC [20, 37]: 0.5 µg/mL
- MIC [21]: 2 µg/mL
- MIC [22]: 2 µg/mL
- MIC [23]: 64 µg/mL
- MIC [24]: 2 µg/mL
- MIC [26]: 2 µg/mL
- pKa, first titratable group [27]: about 5.4
- pKa, second titratable group [27]: ~7.0
- MIC [28]: 1.0 µg/mL
- MIC ([29]; Bacteroides fragilis 111): 32 µg/mL
- MIC ([29]; Bacteroides fragilis 1877): 32 µg/mL
- MIC ([29]; Bacteroides fragilis 1936B): 64 µg/mL
- Solubility [30]: soluble in the same solvents as is factor A
